How the values were obtained:
Assay in all cases: radiometric filter-binding kinase assay, Kinase HotSpot
Conditions in all cases: compound 0.5 µM; ATP 10 µM
PRKD3 (human) = PRKD3 (human) (UniProt O94806)
IRAK4 (human) = IRAK4 (human) (UniProt Q9NWZ3)
ACVR1B (human) = ACVR1B (human) (UniProt P36896)
AURKB (human) = AURKB (human) (UniProt Q96GD4)
EPHB4 (human) = EPHB4 (human) (UniProt P54760)
YES1 (human) = YES1 (human) (UniProt P07947)
SIK2 (human) = SIK2 (human) (UniProt Q9H0K1)
CHEK1 (human) = CHEK1 (human) (UniProt O14757)
ERBB4 (human) = ERBB4 (human) (UniProt Q15303)
STK4 (human) = STK4 (human) (UniProt Q13043)
PRKCG (human) = PRKCG (human) (UniProt P05129)
DAPK3 (human) = DAPK3 (human) (UniProt O43293)
MKNK2 (human) = MKNK2 (human) (UniProt Q9HBH9)
MYLK (human) = MYLK (human) (UniProt Q15746)
MST4 (human) = MST4 (human) (UniProt Q9P289)
PIM2 (human) = PIM2 (human) (UniProt Q9P1W9)
ROS1 (human) = ROS1 (human) (UniProt P08922)
PLK3 (human) = PLK3 (human) (UniProt Q9H4B4)
TAOK1 (human) = TAOK1 (human) (UniProt Q7L7X3)
MLTK (human) = MLTK (human) (UniProt Q9NYL2)
CLK4 (human) = CLK4 (human) (UniProt Q9HAZ1)
PRKCA (human) = PRKCA (human) (UniProt P17252)
CAMK2D (human) = CAMK2D (human) (UniProt Q13557)
FGFR2 (human) = FGFR2 (human) (UniProt P21802)
SGK3 (human) = SGK3 (human) (UniProt Q96BR1)
HCK (human) = HCK (human) (UniProt P08631)
CDK9 CCNT1 (human) = CDK9 CCNT1 (human) (UniProt P50750+O60563)
WEE1 (human) = WEE1 (human) (UniProt P30291)
EPHA3 (human) = EPHA3 (human) (UniProt P29320)
NEK1 (human) = NEK1 (human) (UniProt Q96PY6)
MAPK12 (human) = MAPK12 (human) (UniProt P53778)
NLK (human) = NLK (human) (UniProt Q9UBE8)
EPHB3 (human) = EPHB3 (human) (UniProt P54753)
STK39 (human) = STK39 (human) (UniProt Q9UEW8)
PRKX (human) = PRKX (human) (UniProt P51817)
CAMK1G (human) = CAMK1G (human) (UniProt Q96NX5)
MST1R (human) = MST1R (human) (UniProt Q04912)
MARK1 (human) = MARK1 (human) (UniProt Q9P0L2)
CDK4 CCND3 (human) = CDK4 CCND3 (human) (UniProt P30281+P11802)
TGFBR1 (human) = TGFBR1 (human) (UniProt P36897)
PAK7 (human) = PAK7 (human) (UniProt Q9P286)
NEK2 (human) = NEK2 (human) (UniProt P51955)

Chain of CDK9 CCNT1 (human) (O60563 whole entry, looked up): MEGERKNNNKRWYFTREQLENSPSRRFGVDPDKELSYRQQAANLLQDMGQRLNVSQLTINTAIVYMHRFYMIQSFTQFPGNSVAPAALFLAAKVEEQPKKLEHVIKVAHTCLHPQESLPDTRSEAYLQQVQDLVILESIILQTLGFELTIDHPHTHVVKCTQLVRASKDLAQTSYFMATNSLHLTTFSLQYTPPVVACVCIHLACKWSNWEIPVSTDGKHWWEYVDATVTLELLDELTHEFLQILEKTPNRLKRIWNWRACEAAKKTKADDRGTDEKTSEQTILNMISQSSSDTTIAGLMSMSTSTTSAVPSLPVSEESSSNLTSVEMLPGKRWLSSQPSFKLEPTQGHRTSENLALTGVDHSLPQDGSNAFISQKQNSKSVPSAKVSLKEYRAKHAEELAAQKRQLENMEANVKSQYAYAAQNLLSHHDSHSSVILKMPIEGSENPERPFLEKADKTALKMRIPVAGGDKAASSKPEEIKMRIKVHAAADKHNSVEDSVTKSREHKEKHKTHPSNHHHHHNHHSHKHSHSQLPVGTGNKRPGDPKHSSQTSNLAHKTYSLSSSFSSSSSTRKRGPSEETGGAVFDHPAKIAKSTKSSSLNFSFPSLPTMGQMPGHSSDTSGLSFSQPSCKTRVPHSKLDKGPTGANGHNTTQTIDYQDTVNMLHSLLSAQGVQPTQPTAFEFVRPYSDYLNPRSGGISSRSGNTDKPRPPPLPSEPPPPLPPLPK
Chain of CDK9 CCNT1 (human) (P50750 whole entry, looked up): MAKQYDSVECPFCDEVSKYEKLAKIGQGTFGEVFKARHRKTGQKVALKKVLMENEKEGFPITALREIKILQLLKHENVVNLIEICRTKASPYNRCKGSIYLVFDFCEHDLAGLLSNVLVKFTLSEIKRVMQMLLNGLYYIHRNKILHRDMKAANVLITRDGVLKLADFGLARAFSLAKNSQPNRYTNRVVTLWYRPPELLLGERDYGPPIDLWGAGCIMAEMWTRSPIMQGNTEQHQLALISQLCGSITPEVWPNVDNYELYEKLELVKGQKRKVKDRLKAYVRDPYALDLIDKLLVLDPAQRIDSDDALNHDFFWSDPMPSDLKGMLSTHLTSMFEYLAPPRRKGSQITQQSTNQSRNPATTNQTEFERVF
Chain of CLK4 (human) (Q9HAZ1 whole entry, looked up): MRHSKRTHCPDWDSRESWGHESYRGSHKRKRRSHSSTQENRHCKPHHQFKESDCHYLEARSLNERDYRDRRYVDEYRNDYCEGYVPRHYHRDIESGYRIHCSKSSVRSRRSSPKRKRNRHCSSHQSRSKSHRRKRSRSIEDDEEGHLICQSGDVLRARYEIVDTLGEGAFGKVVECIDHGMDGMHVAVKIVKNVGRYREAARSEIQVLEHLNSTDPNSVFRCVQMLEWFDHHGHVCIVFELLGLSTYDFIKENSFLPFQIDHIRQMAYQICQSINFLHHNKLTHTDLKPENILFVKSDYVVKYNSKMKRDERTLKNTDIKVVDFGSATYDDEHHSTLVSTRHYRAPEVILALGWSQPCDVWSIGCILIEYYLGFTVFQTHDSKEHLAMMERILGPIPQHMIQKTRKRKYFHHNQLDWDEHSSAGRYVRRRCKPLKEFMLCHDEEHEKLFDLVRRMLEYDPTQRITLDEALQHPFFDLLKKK
Chain of NLK (human) (Q9UBE8 whole entry, looked up): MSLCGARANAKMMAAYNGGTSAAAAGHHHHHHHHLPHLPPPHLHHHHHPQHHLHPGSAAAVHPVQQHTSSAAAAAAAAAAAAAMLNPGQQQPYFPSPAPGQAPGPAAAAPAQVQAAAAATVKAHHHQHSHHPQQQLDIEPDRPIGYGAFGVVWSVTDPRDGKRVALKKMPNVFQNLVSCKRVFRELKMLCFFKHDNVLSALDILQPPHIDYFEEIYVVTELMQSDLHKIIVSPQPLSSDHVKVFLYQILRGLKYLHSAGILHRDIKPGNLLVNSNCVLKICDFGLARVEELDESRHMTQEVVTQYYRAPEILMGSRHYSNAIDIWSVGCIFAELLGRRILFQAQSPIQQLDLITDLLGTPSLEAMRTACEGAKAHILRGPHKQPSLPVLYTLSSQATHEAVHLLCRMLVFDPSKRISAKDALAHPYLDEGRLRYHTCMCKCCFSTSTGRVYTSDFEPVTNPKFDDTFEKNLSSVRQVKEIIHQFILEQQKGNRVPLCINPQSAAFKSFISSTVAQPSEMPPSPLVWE
Chain of EPHB3 (human) (P54753 whole entry, looked up): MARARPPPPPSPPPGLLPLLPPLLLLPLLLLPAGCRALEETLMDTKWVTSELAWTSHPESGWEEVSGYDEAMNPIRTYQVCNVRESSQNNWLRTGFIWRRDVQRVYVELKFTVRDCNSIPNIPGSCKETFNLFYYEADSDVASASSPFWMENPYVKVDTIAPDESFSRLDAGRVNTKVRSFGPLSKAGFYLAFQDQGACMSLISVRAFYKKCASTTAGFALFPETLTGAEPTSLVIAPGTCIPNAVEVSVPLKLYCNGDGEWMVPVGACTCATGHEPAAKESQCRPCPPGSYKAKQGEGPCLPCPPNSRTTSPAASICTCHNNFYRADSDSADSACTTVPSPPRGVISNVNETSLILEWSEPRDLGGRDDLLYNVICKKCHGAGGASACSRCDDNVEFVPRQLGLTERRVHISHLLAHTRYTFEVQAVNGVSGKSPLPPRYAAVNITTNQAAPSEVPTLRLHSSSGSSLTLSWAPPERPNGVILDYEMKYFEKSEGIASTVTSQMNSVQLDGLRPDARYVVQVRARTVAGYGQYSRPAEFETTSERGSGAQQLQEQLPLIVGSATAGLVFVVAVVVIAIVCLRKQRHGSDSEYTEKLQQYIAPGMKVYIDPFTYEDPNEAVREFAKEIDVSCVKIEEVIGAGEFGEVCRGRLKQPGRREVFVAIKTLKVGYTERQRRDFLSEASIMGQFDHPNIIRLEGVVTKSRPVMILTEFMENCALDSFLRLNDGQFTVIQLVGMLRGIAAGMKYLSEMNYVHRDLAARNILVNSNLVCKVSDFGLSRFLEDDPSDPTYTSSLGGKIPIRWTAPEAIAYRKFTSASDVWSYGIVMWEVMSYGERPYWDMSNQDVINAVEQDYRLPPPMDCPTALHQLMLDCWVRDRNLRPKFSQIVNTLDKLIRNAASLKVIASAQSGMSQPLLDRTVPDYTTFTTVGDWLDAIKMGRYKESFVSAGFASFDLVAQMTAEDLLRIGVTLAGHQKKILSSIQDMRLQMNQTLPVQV
Chain of TGFBR1 (human) (P36897 whole entry, looked up): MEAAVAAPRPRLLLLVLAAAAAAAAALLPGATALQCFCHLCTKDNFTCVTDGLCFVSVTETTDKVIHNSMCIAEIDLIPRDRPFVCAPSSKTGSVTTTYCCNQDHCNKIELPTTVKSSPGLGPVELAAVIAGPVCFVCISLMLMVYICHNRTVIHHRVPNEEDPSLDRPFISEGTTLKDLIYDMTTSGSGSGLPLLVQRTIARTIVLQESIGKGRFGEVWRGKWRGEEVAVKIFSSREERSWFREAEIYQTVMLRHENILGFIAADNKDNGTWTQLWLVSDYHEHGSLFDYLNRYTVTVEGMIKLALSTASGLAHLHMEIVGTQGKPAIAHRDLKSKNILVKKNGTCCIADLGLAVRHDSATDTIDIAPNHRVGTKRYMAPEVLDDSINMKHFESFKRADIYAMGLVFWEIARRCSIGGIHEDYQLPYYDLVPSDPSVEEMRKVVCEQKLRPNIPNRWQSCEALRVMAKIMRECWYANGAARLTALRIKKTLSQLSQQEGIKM
Chain of CHEK1 (human) (O14757 whole entry, looked up): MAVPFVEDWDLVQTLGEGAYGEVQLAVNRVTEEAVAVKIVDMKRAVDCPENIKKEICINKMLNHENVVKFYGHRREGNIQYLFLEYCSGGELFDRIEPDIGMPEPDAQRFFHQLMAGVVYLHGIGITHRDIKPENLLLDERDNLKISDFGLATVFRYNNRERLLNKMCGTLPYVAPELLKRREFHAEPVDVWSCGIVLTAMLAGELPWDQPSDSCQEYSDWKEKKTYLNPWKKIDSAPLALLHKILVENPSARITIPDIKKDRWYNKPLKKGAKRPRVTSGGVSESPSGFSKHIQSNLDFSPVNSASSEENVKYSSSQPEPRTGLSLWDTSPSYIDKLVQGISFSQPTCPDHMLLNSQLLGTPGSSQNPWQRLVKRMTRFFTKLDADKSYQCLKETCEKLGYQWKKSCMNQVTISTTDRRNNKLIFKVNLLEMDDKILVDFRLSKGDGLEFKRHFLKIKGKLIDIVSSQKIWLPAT
Chain of MAPK12 (human) (P53778 whole entry, looked up): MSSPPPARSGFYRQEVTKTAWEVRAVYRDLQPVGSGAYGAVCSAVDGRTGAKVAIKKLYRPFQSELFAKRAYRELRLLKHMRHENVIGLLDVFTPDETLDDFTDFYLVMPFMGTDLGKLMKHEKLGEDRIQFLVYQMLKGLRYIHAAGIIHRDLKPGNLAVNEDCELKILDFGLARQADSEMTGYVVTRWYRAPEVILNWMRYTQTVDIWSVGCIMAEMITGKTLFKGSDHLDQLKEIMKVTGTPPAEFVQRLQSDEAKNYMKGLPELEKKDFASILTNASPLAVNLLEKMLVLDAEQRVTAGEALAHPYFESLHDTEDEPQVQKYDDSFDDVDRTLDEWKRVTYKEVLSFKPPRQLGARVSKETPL
Chain of YES1 (human) (P07947 whole entry, looked up): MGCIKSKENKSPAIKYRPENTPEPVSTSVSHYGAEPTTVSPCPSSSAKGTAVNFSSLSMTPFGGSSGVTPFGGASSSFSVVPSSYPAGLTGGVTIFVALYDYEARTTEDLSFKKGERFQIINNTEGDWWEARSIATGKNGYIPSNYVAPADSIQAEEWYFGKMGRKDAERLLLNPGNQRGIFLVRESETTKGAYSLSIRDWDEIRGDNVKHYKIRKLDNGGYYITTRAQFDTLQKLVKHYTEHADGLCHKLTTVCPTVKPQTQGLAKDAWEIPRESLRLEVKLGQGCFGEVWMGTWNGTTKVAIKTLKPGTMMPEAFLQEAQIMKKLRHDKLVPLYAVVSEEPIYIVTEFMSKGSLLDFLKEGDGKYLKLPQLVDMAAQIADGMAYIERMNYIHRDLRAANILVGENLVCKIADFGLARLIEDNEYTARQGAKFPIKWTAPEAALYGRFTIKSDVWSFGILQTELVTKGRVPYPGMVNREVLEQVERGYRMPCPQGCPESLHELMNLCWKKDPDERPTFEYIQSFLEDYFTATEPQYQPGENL

COc1ccc(OC)c2c(=S)c3ccccc3[nH]c12
residual activity (PRKD3 (human)): 94.1%
residual activity (IRAK4 (human)): 109%
residual activity (ACVR1B (human)): 108%
residual activity (AURKB (human)): 89.6%
residual activity (EPHB4 (human)): 91.1%
residual activity (YES1 (human)): 89.2%
residual activity (SIK2 (human)): 114%
residual activity (CHEK1 (human)): 92.7%
residual activity (ERBB4 (human)): 104%
residual activity (STK4 (human)): 96.8%
residual activity (PRKCG (human)): 77.6%
residual activity (DAPK3 (human)): 112%
residual activity (MKNK2 (human)): 86.2%
residual activity (MYLK (human)): 89.8%
residual activity (MST4 (human)): 90.8%
residual activity (PIM2 (human)): 103%
residual activity (ROS1 (human)): 103%
residual activity (PLK3 (human)): 99.8%
residual activity (TAOK1 (human)): 95.7%
residual activity (MLTK (human)): 94%
residual activity (CLK4 (human)): 104%
residual activity (PRKCA (human)): 95.7%
residual activity (CAMK2D (human)): 89.8%
residual activity (FGFR2 (human)): 95.8%
residual activity (SGK3 (human)): 90.7%
residual activity (HCK (human)): 95.8%
residual activity (CDK9 CCNT1 (human)): 98.8%
residual activity (WEE1 (human)): 102%
residual activity (EPHA3 (human)): 94.9%
residual activity (NEK1 (human)): 102%
residual activity (MAPK12 (human)): 98.1%
residual activity (NLK (human)): 98.8%
residual activity (EPHB3 (human)): 91%
residual activity (STK39 (human)): 94.4%
residual activity (PRKX (human)): 93.5%
residual activity (CAMK1G (human)): 99.5%
residual activity (MST1R (human)): 87.9%
residual activity (MARK1 (human)): 88.3%
residual activity (CDK4 CCND3 (human)): 95.5%
residual activity (TGFBR1 (human)): 99.1%
residual activity (PAK7 (human)): 82.9%

CCn1cnc2c(Nc3cccc(Cl)c3)nc(N[C@@H]3CCCC[C@@H]3N)nc21
residual activity (PRKD3 (human)): 90.6%
residual activity (IRAK4 (human)): 94.8%
residual activity (ACVR1B (human)): 110%
residual activity (AURKB (human)): 98.8%
residual activity (EPHB4 (human)): 70.8%
residual activity (YES1 (human)): 35.4%
residual activity (SIK2 (human)): 89.1%
residual activity (NEK2 (human)): 100%
residual activity (CHEK1 (human)): 85.8%
residual activity (ERBB4 (human)): 103%
residual activity (STK4 (human)): 91.3%
residual activity (PRKCG (human)): 95%
residual activity (DAPK3 (human)): 105%
residual activity (MKNK2 (human)): 93.5%
residual activity (MYLK (human)): 91%
residual activity (MST4 (human)): 104%
residual activity (PIM2 (human)): 111%
residual activity (ROS1 (human)): 90.7%
residual activity (PLK3 (human)): 90.1%
residual activity (TAOK1 (human)): 90.2%
residual activity (MLTK (human)): 104%
residual activity (CLK4 (human)): 49.9%
residual activity (PRKCA (human)): 68.2%
residual activity (CAMK2D (human)): 89%
residual activity (SGK3 (human)): 94.3%
residual activity (HCK (human)): 69.6%
residual activity (CDK9 CCNT1 (human)): 53.7%
residual activity (WEE1 (human)): 110%
residual activity (EPHA3 (human)): 85.7%
residual activity (NEK1 (human)): 95%
residual activity (MAPK12 (human)): 96.6%
residual activity (NLK (human)): 90.8%
residual activity (EPHB3 (human)): 92.6%
residual activity (STK39 (human)): 106%
residual activity (PRKX (human)): 102%
residual activity (CAMK1G (human)): 94.1%
residual activity (MST1R (human)): 99.6%
residual activity (MARK1 (human)): 93.1%
residual activity (CDK4 CCND3 (human)): 71.5%
residual activity (TGFBR1 (human)): 95.6%
residual activity (PAK7 (human)): 64.7%

CN([C@@H](Cc1ccc(OS(=O)(=O)c2cccc3cnccc23)cc1)C(=O)N1CCN(c2ccccc2)CC1)S(=O)(=O)c1cccc2cnccc12
residual activity (PRKD3 (human)): 99.2%
residual activity (IRAK4 (human)): 92.1%
residual activity (ACVR1B (human)): 98.7%
residual activity (AURKB (human)): 104%
residual activity (YES1 (human)): 110%
residual activity (SIK2 (human)): 108%
residual activity (NEK2 (human)): 87.4%
residual activity (CHEK1 (human)): 99.5%
residual activity (ERBB4 (human)): 103%
residual activity (STK4 (human)): 96.8%
residual activity (PRKCG (human)): 95.4%
residual activity (DAPK3 (human)): 106%
residual activity (MKNK2 (human)): 104%
residual activity (MYLK (human)): 98.2%
residual activity (MST4 (human)): 109%
residual activity (PIM2 (human)): 98.5%
residual activity (ROS1 (human)): 96.5%
residual activity (PLK3 (human)): 99.3%
residual activity (TAOK1 (human)): 98.7%
residual activity (MLTK (human)): 103%
residual activity (CLK4 (human)): 97.2%
residual activity (PRKCA (human)): 105%
residual activity (CAMK2D (human)): 92.8%
residual activity (FGFR2 (human)): 98.1%
residual activity (SGK3 (human)): 104%
residual activity (HCK (human)): 97.4%
residual activity (CDK9 CCNT1 (human)): 100%
residual activity (WEE1 (human)): 87.7%
residual activity (EPHA3 (human)): 102%
residual activity (NEK1 (human)): 102%
residual activity (MAPK12 (human)): 92.2%
residual activity (NLK (human)): 106%
residual activity (EPHB3 (human)): 97%
residual activity (STK39 (human)): 93.5%
residual activity (PRKX (human)): 109%
residual activity (CAMK1G (human)): 93.6%
residual activity (MST1R (human)): 94.4%
residual activity (MARK1 (human)): 96.7%
residual activity (CDK4 CCND3 (human)): 97.8%
residual activity (PAK7 (human)): 103%

Nc1nnc2[nH]c3ccccc3nc1-2
residual activity (PRKD3 (human)): 87.3%
residual activity (IRAK4 (human)): 94.7%
residual activity (ACVR1B (human)): 99.9%
residual activity (AURKB (human)): 101%
residual activity (EPHB4 (human)): 84.9%
residual activity (YES1 (human)): 97.1%
residual activity (SIK2 (human)): 102%
residual activity (NEK2 (human)): 99.6%
residual activity (CHEK1 (human)): 187%
residual activity (STK4 (human)): 94.5%
residual activity (PRKCG (human)): 97.3%
residual activity (DAPK3 (human)): 98.2%
residual activity (MKNK2 (human)): 89.1%
residual activity (MYLK (human)): 93.6%
residual activity (MST4 (human)): 91.2%
residual activity (PIM2 (human)): 105%
residual activity (ROS1 (human)): 106%
residual activity (PLK3 (human)): 96.3%
residual activity (TAOK1 (human)): 101%
residual activity (MLTK (human)): 96.3%
residual activity (CLK4 (human)): 86.9%
residual activity (PRKCA (human)): 71%
residual activity (CAMK2D (human)): 89.4%
residual activity (FGFR2 (human)): 98.1%
residual activity (SGK3 (human)): 96.6%
residual activity (HCK (human)): 98.6%
residual activity (CDK9 CCNT1 (human)): 81.6%
residual activity (WEE1 (human)): 101%
residual activity (EPHA3 (human)): 95.2%
residual activity (NEK1 (human)): 91.7%
residual activity (MAPK12 (human)): 100%
residual activity (NLK (human)): 95.2%
residual activity (EPHB3 (human)): 90.3%
residual activity (STK39 (human)): 116%
residual activity (PRKX (human)): 102%
residual activity (CAMK1G (human)): 97.9%
residual activity (MST1R (human)): 105%
residual activity (MARK1 (human)): 95.7%
residual activity (CDK4 CCND3 (human)): 94.8%
residual activity (TGFBR1 (human)): 98.1%
residual activity (PAK7 (human)): 98.4%

Cn1cnc2cc3c(Nc4cccc(Br)c4)ncnc3cc21
residual activity (PRKD3 (human)): 93.1%
residual activity (IRAK4 (human)): 89.1%
residual activity (ACVR1B (human)): 111%
residual activity (AURKB (human)): 78.2%
residual activity (YES1 (human)): 45.7%
residual activity (SIK2 (human)): 101%
residual activity (NEK2 (human)): 103%
residual activity (CHEK1 (human)): 113%
residual activity (ERBB4 (human)): 75.5%
residual activity (STK4 (human)): 94.2%
residual activity (PRKCG (human)): 93.9%
residual activity (DAPK3 (human)): 93.7%
residual activity (MKNK2 (human)): 32.2%
residual activity (MYLK (human)): 83.3%
residual activity (MST4 (human)): 94.3%
residual activity (PIM2 (human)): 113%
residual activity (ROS1 (human)): 99.9%
residual activity (PLK3 (human)): 99.8%
residual activity (TAOK1 (human)): 92.4%
residual activity (MLTK (human)): 93.3%
residual activity (CLK4 (human)): 88.5%
residual activity (PRKCA (human)): 79%
residual activity (CAMK2D (human)): 92.2%
residual activity (FGFR2 (human)): 98%
residual activity (SGK3 (human)): 107%
residual activity (HCK (human)): 70.4%
residual activity (CDK9 CCNT1 (human)): 88.5%
residual activity (WEE1 (human)): 106%
residual activity (EPHA3 (human)): 82.9%
residual activity (NEK1 (human)): 97.9%
residual activity (MAPK12 (human)): 92%
residual activity (NLK (human)): 100%
residual activity (EPHB3 (human)): 93.8%
residual activity (STK39 (human)): 111%
residual activity (PRKX (human)): 101%
residual activity (CAMK1G (human)): 94.2%
residual activity (MST1R (human)): 96.5%
residual activity (MARK1 (human)): 94.3%
residual activity (CDK4 CCND3 (human)): 95.9%
residual activity (TGFBR1 (human)): 97.6%
residual activity (PAK7 (human)): 86.1%

Reference: the kinase profiling compilation of Christmann-Franck et al. (2016)
